Legend:
Assay in all cases: relative viability (nuclei count vs DMSO), 5 days (fraction); higher = more cells survive
[1] = compound: CCC1=CN=CN=C1N2CCN(CC2)CC3=NC4=C(N3)C=C(C=C4)C(F)(F)F + NC(=O)Nc1cc(-c2cccc(F)c2)sc1C(=O)N[C@H]1CCCNC1 [AZD7762] (partner 0.2 µM)
Outline: (§1)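 After 5 days of treatment, lung cancer cells in 1536-well plates were fixed and stained in a single step (final 0.05% Triton X-100, 1% formaldehyde, 1 ug/ml Hoechst) and their nuclei counted on 4× images. Treatment had been applied by pin tool the day after seeding as one drug alone or as a fixed anchor-drug dose with five library-drug doses (not always all listed) in √10 steps. Relative viability is the nuclei count of treated wells divided by that of vehicle wells, and values are medians of duplicate plates.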

[2] = compound: CCC1=CN=CN=C1N2CCN(CC2)CC3=NC4=C(N3)C=C(C=C4)C(F)(F)F + O=C(CCCCCCC(=O)Nc1ccccc1)NO [Vorinostat] (partner 1 µM)
Outline: as §1

[3] = compound: CCC1=CN=CN=C1N2CCN(CC2)CC3=NC4=C(N3)C=C(C=C4)C(F)(F)F + O=C(c1cc(Cc2n[nH]c(=O)c3ccccc23)ccc1F)N1CCN(C(=O)C2CC2)CC1 [Olaparib] (partner 8 µM)
Outline: as §1

[4] = compound: CCn1c(-c2nonc2N)nc2cnc(Oc3cccc(NC(=O)c4ccc(OCCN5CCOCC5)cc4)c3)cc21 + O=C(CCCCCCC(=O)Nc1ccccc1)NO [Vorinostat] (partner 1 µM)
Outline: as §1

Row | Cell Line | relative viability ([1]; first compound 0.04 µM) | relative viability ([1]; first compound 0.1265 µM) | relative viability ([1]; first compound 0.4 µM) | relative viability ([1]; first compound 1.265 µM) | relative viability ([1]; first compound 4 µM) | relative viability ([2]; first compound 0.04 µM) | relative viability ([2]; first compound 0.1265 µM) | relative viability ([2]; first compound 0.4 µM) | relative viability ([2]; first compound 1.265 µM) | relative viability ([2]; first compound 4 µM) | relative viability ([3]; first compound 0.04 µM) | relative viability ([3]; first compound 0.1265 µM) | relative viability ([3]; first compound 0.4 µM) | relative viability ([3]; first compound 1.265 µM) | relative viability ([3]; first compound 4 µM) | relative viability ([4]; first compound 0.04 µM) | relative viability ([4]; first compound 0.1265 µM) | relative viability ([4]; first compound 0.4 µM) | relative viability ([4]; first compound 1.265 µM) | relative viability ([4]; first compound 4 µM)
1 | NCI-H1666 | 0.864 | 0.77 | 0.767 | 0.716 | 0.815 | 1.04 | 1.04 | 0.843 | 0.922 | 0.994 | 0.743 | 0.729 | 0.772 | 0.727 | 0.71 | 1.13 | 1.05 | 1.12 | 1.05 | 1.03
2 | NCI-H1944 | 0.757 | 0.512 | 0.465 | 0.379 | 0.607 | 0.664 | 0.441 | 0.663 | 0.384 | 0.524 | 0.622 | 0.395 | 0.378 | 0.344 | 0.361 | 0.662 | 0.572 | 0.463 | 0.481 | 0.261
3 | NCI-H1755 | 0.579 | 0.528 | 0.434 | 0.395 | 0.602 | 0.741 | 0.699 | 0.641 | 0.514 | 0.827 | 0.915 | 0.903 | 0.856 | 0.82 | 0.75 | 0.843 | 0.796 | 0.615 | 0.577 | 0.506
4 | NCI-H2347 | 0.708 | 0.699 | 0.823 | 0.645 | 0.905 | 0.61 | 0.673 | 0.649 | 0.321 | 0.516 | 0.6 | 0.654 | 0.603 | 0.59 | 0.575 | 0.654 | 0.656 | 0.488 | 0.348 | 0.427
5 | ABC-1 | 0.766 | 0.906 | 0.702 | 0.956 | 0.869 | – | – | 0.989 | 0.84 | 1.03 | – | – | 0.646 | 0.649 | 0.536 | 1.25 | 0.8 | 0.822 | 0.32 | 0.665
6 | 201T | 0.64 | 0.581 | 0.511 | 0.585 | 0.681 | 0.923 | 0.889 | 0.819 | 0.817 | 1.06 | 0.816 | 0.831 | 0.866 | 0.814 | 0.853 | 1.07 | 0.882 | 0.717 | 0.876 | 0.896
7 | NCI-H1734 | 0.619 | 0.626 | 0.562 | 0.564 | 0.782 | 0.734 | 0.803 | 0.783 | 0.7 | 0.814 | 0.63 | 0.609 | 0.587 | 0.584 | 0.557 | 0.937 | 0.838 | 0.586 | 0.412 | 0.399
8 | NCI-H596 | 1.21 | 1.07 | 1.07 | 0.992 | 1.08 | 0.534 | 0.56 | 0.618 | 0.562 | 0.623 | 0.737 | 0.64 | 0.575 | 0.649 | 0.747 | 0.598 | 0.531 | 0.617 | 0.468 | 0.604

From the supplement of paper PMC10307832
